# Results from patent US12173212B2, “Design, synthesis, and photophysical properties of a novel NIR II dye for biological imaging and optoelectronic devices” (University of Mississippi, priority 2020, dated 2024).
# Tests used:
# [1] = Fluorescence spectra (Horiba QuantaMaster 8075-21 spectrofluorometer, InGaAs detector); assay type: physicochemical; settings: closed spirolactone structure
# Procedure: (§1) All chemicals and solvents were purchased from commercial suppliers and used without further purification unless other-wise specified. ^1H NMR (500 MHz) and ^13C NMR ([…]) spectra were recorded in deuterated solvents on a Bruker ADVANCE 500 NMR Spectrometer. J values are expressed in Hz and quoted chemical shifts are in ppm downfield from tetramethylsilane (TMS) reference using the residual protonated solvents as an internal standard. The signals have been designated as follows: s (singlet), d (doublet), t (triplet), m (multiplets). High resolution mass spectra (HRMS) were deter-mined on Bruker-micrOTOF-Q II Mass Spectrometer. Absorption spectra were acquired using a Cary 5000 UV-Vis-NIR spectrophotometer in a 1 cm quartz cell. Fluorescence spectra were acquired using a Horiba QuantaMaster 8075-21 spectrofluorometer with xenon lamp excitation and liquid nitrogen cooled indium gallium arsenide solid state detector. […] The relative quantum yield of the rhodindolizine dye was calculated using a known technique. […] The absorbance point for the quantum yield was chosen because of similar overlap in the absorption spectra between the standard and the rhodindolizine dye. […]
# (§2) Additionally, a range of solvent polarities were evaluated to access the polarity of RhIndz in the ground-state via absorption spectroscopy and in the excited-state via fluorescence spectroscopy (Table 6).
# [2] = Absorption spectra (Cary 5000 UV-Vis-NIR spectrophotometer, 1 cm quartz cell); assay type: physicochemical; settings: ring closed lactone form, FIG. 2
# Procedure: as §1, §2
smiles,measurement,setting,value
"Cc1c(-c2ccccc2)c(-c2ccc3c(c2)Oc2cc(-c4c(-c5ccccc5)c(C)c5ccccn45)ccc2C32OC(=O)c3ccccc32)n2ccccc12 [RhIndz, 3′,6′-bis(1-methyl-2-phenylindolizin-3-yl)-3H-spiro[2-benzofuran-1,9′-xanthen]-3-one]",fluorescence of closed spirocyclic form,[1],non-fluorescent
same,absorption maximum,[2],375 nm
